Key:
[1] = biological target: Aplysia californica AChBP (Aplysia californica, UniProt Q8WSF8); assay: biochemical; assay type: binding
rat α9α10 nAChR = settings: cited from earlier work

Aplysia californica AChBP, sequence (Q8WSF8 18-236 limits assumed): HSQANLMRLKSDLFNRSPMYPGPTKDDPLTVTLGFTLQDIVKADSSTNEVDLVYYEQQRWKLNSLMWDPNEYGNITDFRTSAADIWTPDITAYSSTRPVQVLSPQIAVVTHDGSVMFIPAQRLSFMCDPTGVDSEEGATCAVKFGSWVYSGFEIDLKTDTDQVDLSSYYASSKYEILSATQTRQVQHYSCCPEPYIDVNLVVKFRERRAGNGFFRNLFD

Compound | IC50 [1] [nM] | affinity for rat α9α10 nAChRs (rat α9α10 nAChR)
N=C(N)NCCC[C@H](NC(=O)[C@@H]1CSSC[C@H](NC(=O)CN)C(=O)N[C@H]2CSSC[C@H](NC(=O)[C@H](CCCNC(=N)N)NC(=O)[C@@H]3CCCN3C(=O)[C@H](CC(=O)O)NC(=O)[C@H](CO)NC2=O)C(=O)N[C@@H](CCCNC(=N)N)C(=O)N[C@@H](Cc2ccc(O)cc2)C(=O)N[C@@H](CCCNC(=N)N)C(=O)N1)C(=O)O [RgIA ribbon isomer] | 1000 ± 80 | –
Vc1.1 | – | nanomolar
N=C(N)NCCC[C@H](NC(=O)[C@@H]1CSSC[C@@H]2NC(=O)[C@@H](NC(=O)CN)CSSC[C@H](NC(=O)[C@H](CCCNC(=N)N)NC(=O)[C@@H]3CCCN3C(=O)[C@H](CC(=O)O)NC(=O)[C@H](CO)NC2=O)C(=O)N[C@@H](CCCNC(=N)N)C(=O)N[C@@H](Cc2ccc(O)cc2)C(=O)N[C@@H](CCCNC(=N)N)C(=O)N1)C(=O)O [RgIA globular isomer] | 194 ± 14 | –

Source: article PMC6315749 (Marine Drugs, 2018)
